Common to all, as to assay type: in vivo
Experiment [1] deals with colorectal cancer (MC38). Nature of the experiment: colorectal cancer (MC38) tumor-bearing model in WT and RIP2−/− C57BL/6 mice, atezolizumab. Conditions: for tumor growth (tumor volume progression): 150 μg/mouse i.p. Days 0, 4, 11, 18; for tumor weight: compared to corresponding control group. The protocol: Test substances atezolizumab (Roche) and IgG control antibody (in VivoMAb human IgG1 isotype control; BioXCell, BE0297) were prepared in saline. Experimental animals and tumor lines: SPF-grade male wild-type (WT) C57BL/6 mice (20 to 25 g) and RIP2 knockout (RIP2^−/−) mice (6 to 8 weeks old, 20 to 25 g) were purchased from Shanghai Model Organisms Center, Inc. The mice were generated using CRISPR-Cas9 technology and bred at the Laboratory Animal Resources Center, Tsinghua University. The cells used in the experiment were murine colorectal cancer cells (MC38), which were purchased from the Cell Bank of Peking Union Medical College.
According to the method shown in (A and B of FIG. 1), the mice were subcutaneously inoculated with MC38 cells at a concentration of 5×10^6 cells/mL and 0.1 mL/mouse. When the tumor grew to a volume within the range of 100 mm^3, WT mice and RIP2^−/− mice were randomly divided into 2 groups based on tumor volume, with 6 to 8 mice per group, and dosing was initiated. The dosing regimen was as follows: (i) WT-blank control (WT-IgG control, 150 μg/mouse) group; (ii) WT-atezolizumab (150 μg/mouse) group; (iii) RIP2^−/−-blank control (RIP2^−/−-IgG control, 150 μg/mouse) group; (iv) RIP2^−/−-atezolizumab (150 μg/mouse) group. IgG control and atezolizumab were administered via intraperitoneal injection on Days 0, 4, 11, and 18 for a total of 4 doses. The day of grouping and dosing was recorded as Day 0. During the dosing process, the animals were weighed every 2 to 3 days, and the long and short diameters of the tumor were measured with a vernier caliper. The tumor size was calculated by the formula: (1/2)×long diameter×(short diameter)^2. The experiment was terminated on Day 20. After the mice were euthanized and dissected, the tumor was removed and weighed, and the tumor inhibition rate was calculated by the formula: [([…])/average tumor weight of the control group]×100%.

The subject of experiment [2] is colorectal cancer (MC38). As to the kind of experiment: colorectal cancer (MC38) tumor-bearing model in C57BL/6 mice, GSK583 combined with atezolizumab. Conditions: for tumor growth (tumor volume progression): atezolizumab 150 μg/mouse i.p. Days 0, 4, 11, GSK583 1 mg/kg i.v. once every 4 days, 4 doses, compared to IgG control. The protocol:
Test substances atezolizumab (Roche) and IgG control antibody (in VivoMAb human IgG1 isotype control; BioXCell, BE0297) were prepared in saline. GSK583 was formulated as a 20× stock solution in DMSO and diluted to the dosing concentration with saline containing 5% polyoxyl 35 castor oil (Cremophor EL) before use.
(§1) Experimental animals and tumor lines: SPF-grade male wild-type C57BL/6 mice (6 to 8 weeks old, 20 to 25 g) were purchased from the Laboratory Animal Resources Center, Tsinghua University. The cells used in the experiment were murine colorectal cancer cells (MC38), which were purchased from the Cell Bank of Peking Union Medical College.
According to the method shown in (A and B of FIG. 3), the mice were subcutaneously inoculated with MC38 cells at a concentration of 5×10^6 cells/mL and 0.1 mL/mouse. When the tumor grew to a volume within the range of 100 mm^3, the mice were randomly divided into 4 groups based on tumor volume, with 6 to 8 mice per group, and dosing was initiated. The dosing regimen was as follows: (i) blank control (IgG control, 150 μg/mouse) group; (ii) GSK583 (1 mg/kg) group; (iii) atezolizumab (150 μg/mouse) group; (iv) atezolizumab (150 μg/mouse)+GSK583 (1 mg/kg). GSK583 was administered via intravenous injection once every 4 days for a total of 4 doses; IgG control and atezolizumab were administered via intraperitoneal injection on Days 0, 4, and 11 for a total of 3 doses. The day of grouping and dosing was recorded as Day 0. During the dosing process, the animals were weighed every 2 to 3 days, and the long and short diameters of the tumor were measured with a vernier caliper. The tumor size was calculated by the formula: (½)×long diameter×(short diameter)^2. The experiment was terminated on Day 15. After the mice were euthanized and dissected, the tumor was removed and weighed, and the tumor inhibition rate was calculated.

The test system of experiment [3] is colorectal cancer (MC38). As to the kind of experiment: colorectal cancer (MC38) tumor-bearing model in C57BL/6 mice, GSK583 combined with pembrolizumab. Conditions: Day 20; pembrolizumab 150 μg/mouse i.p.; GSK583 1 mg/kg i.v. once every 4 days; compared to IgG control. Here is the method: Test substances pembrolizumab (Merck & Co., Inc.) and IgG control antibody (in VivoMAb human IgG1 isotype control; BioXCell, BE0297) were prepared in saline. GSK583 was formulated as a 20× stock solution in DMSO and diluted to the dosing concentration with saline containing 5% polyoxyl 35 castor oil (Cremophor EL) before use.
as §1
According to the method shown in (A and B of FIG. 7), the mice were subcutaneously inoculated with MC38 cells at a concentration of 5×10^6 cells/mL and 0.1 mL/mouse. When the tumor grew to a volume within the range of 100 mm^3, the mice were randomly divided into 3 groups based on tumor volume, with 6 to 7 mice per group, and dosing was initiated. […] The day of grouping and dosing was recorded as Day 0. During the dosing process, the animals were weighed every 2 to 3 days, and the long and short diameters of the tumor were measured with a vernier caliper. The tumor size was calculated by the formula: (½)×long diameter×(short diameter)^2. […]

Take “atezolizumab: programmed death-ligand 1 (PD-L1) inhibitor, atezolizumab (Roche)”: the “inhibitory effect on tumor growth, RIP2−/− mice compared to WT mice” value in experiment [1] (150 μg/mouse i.p., tumor volume) is listed as “significantly improved”. Moreover, the “tumor growth (tumor volume progression)” value in experiment [1] (RIP2−/− mice, compared to RIP2−/−-IgG control) is “significantly inhibited tumor growth”; in experiment [1] (WT mice, compared to WT-IgG control), “significantly inhibited tumor growth”; in experiment [2] it was “significantly inhibited tumor growth”. Moreover, the tumor weight result in experiment [1] (RIP2−/− mice, end of dosing (Day 20)) is on record as “significantly reduced tumor weight”; in experiment [1] (WT mice, end of dosing (Day 20)), “significantly reduced tumor weight”; in experiment [2] (end of dosing (Day 15), compared to control group), “significantly lower than that in the control group”. Also, in experiment [1] (end of dosing (Day 20)), the “anti-tumor effect (tumor weight, tumor weight inhibition rate), RIP2−/− mice compared to WT mice” value was “significantly stronger than that in WT mice”.

For the compound “pembrolizumab: programmed death 1 (PD-1) inhibitor, pembrolizumab (Merck & Co., Inc.)”, in experiment [3], the “tumor growth (tumor volume progression)” value was “significantly inhibited tumor growth”.

As to `CC(C)(C)S(=O)(=O)c1ccc2nccc(Nc3n[nH]c4ccc(F)cc34)c2c1` [GSK583], the “tumor growth (tumor volume progression)” value in experiment [2] is given as “no significant inhibitory effect on tumor growth”.
